# Results from patent US20220187282A1, “CARDIOMYOCYTE PROLIFERATION” (The Council of the Queensland Institute of Medical Research, priority 2019, published 2022).
# Structures can show the parent of a compound that is named as a salt.
# Experiments:
# [1] = tested on: mature hCOs; experiment: mature hCO, cardiomyocyte proliferation (Ki-67 intensity, Ki-67+ α-actinin cardiomyocytes); type: cell-based, human
# Method: hCOs were cultured in CTRL medium for formation for 5 days and then either kept in CTRL medium culture or changed to maturation medium (Mills et al., 2017a) comprising DMEM without glucose, glutamine and phenol red (ThermoFisher Scientific) supplemented with 4% […](without insulin) (ThermoFisher Scientific), 1% GlutaMAX (ThermoFisher Scientific), 200 μM L-ascorbic acid 2-phosphate sesquimagnesium salt hydrate and 1% Penicillin/Streptomycin (ThermoFisher Scientific), 1 mmol/L glucose and 100 μmon palmitic acid (conjugated to bovine serum albumin within B27 by incubating for 2h at 37° C., Sigma) with changes every 2-3 days.
# Whole-Mount Immunostaining hCOs were fixed for 60 min with 1% paraformaldehyde (Sigma) at room temperature and washed 3× with PBS, after which they were incubated with primary antibodies (see Star Methods Table) in Blocking Buffer, 5% FBS and 0.2% Triton-X-100 (Sigma) in PBS overnight at 4° C. Cells were then washed in Blocking Buffer 2× for 2 h and subsequently incubated with secondary antibodies (see Star Methods Table) and Hoechst33342 (1:1000) overnight at 4° C. They were washed in Blocking Buffer 2× for 2 h and imaged in situ or mounted on microscope slides using Fluoromount-G (Southern Biotech).
# For screening hCOs were imaged using a Leica DMi8 high content imaging microscope for in situ imaging. Custom batch processing files were written in Matlab R2013a (Mathworks) to remove the background, calculate the image intensity, and export the batch data to an Excel (Microsoft) spreadsheet.
# For more detailed images an Olympus IX81 confocal microscope was used for mounted hCO imaging. For cell cycle analysis experiments 3 random fields of view were imaged and manually quantified for proliferation. These were added together to calculate the percentage of hPSC-CM proliferation in each hCO.
# Hits were next validated in mature hCOs using a targeted concentration range based on their active concentrations in the initial immature hCO screen (FIG. 3A). Proliferation markers were quantified using high magnification confocal imaging as we found flow cytometry to be inaccurate in hCO (data not shown). Compounds 3, 63 and 65 had no impact on contractile force (FIG. 3B) at concentrations of 3 μM, 0.3 μM and 1 μM, respectively. […] The effects of both compound 3 and compound 65 were reversible, with proliferation ceasing within 5 days of compound withdrawal (FIG. 8B). Therefore, compound 3 (FIG. 3G) and compound 65 (Goldberg et al., 2009) (FIG. 3H) are both capable of inducing bona fide cardiomyocyte proliferation in mature hCOs without adversely affecting contractile properties.
# [2] = tested on: 2D hPSC-CM; experiment: 2D hPSC-CM culture, Ki-67 image cytometry (proliferation, number, size); type: cell-based, human; details: 24 h, 0.5 M mevalonic acid 5-phosphate, 20 μM GGPP, 20 μM FPP, 20 μM squalene
# Method: Day 15 dissociated differentiation cultures were plated at 100,000 cells/cm2 in 0.1% gelatin coated 96-well tissue culture plates in CTRL medium. For 3 day incubation experiments, after 2 days of culture in CTRL medium, cells were then treated with 10 μM simvastatin in maturation medium for a further 3 days. For 1 day incubation experiments, after 1 day of culture in CTRL medium, cells were treated with 10 μM simvastatin, 0.5 M (±)-Mevalonic acid 5-phosphate lithium salt hydrate, 20 μM geranylgeranyl pyrophosphate, 20 μM farnesyl pyrophosphate and/or 20 μM squalene in maturation medium for a further day.
# hCOs were fixed for 10 min with 1% paraformaldehyde (Sigma) at room temperature and washed 3× with PBS, after which they were incubated with primary antibodies (see Star Methods Table) in Blocking Buffer, 5% FBS and 0.2% Triton-X-100 (Sigma) in PBS for 1-2 hours at room temperature. Cells were then washed in Blocking Buffer 2× for 3 min and subsequently incubated with secondary antibodies (see Star Methods Table) and Hoechst33342 (1:1000) for 1 hour at room temperature. They were washed in Blocking Buffer 2× and imaged.
# For screening hCOs were imaged using a Leica DMi8 high content imaging microscope for in situ imaging. Custom batch processing files were written in Matlab R2013a (Mathworks) to analyse the number of cardiomyocytes, identify the nuclei of proliferating (Ki-67+) cardiomyocytes and determine the average size of the cardiomyocytes, and export the batch data to an Excel (Microsoft) spreadsheet.
# Initial experiments were performed in immature proliferative 2D hPSC-CM (FIG. 6A) using high content imaging (FIG. 6B) and image cytometry analysis (FIG. 13A). HMGCR mediated production of cholesterol metabolites was inhibited with 10 μM simvastatin for 3 days.
# In order to determine which metabolites in the mevalonate pathway are critical for proliferation, we performed experiments over 24 hours to enable more precise control of metabolites and to measure the primary effects of the manipulations. In these experiments, the mevalonate pathway was inhibited using 10 μM simvastatin, and then different metabolites were provided within the medium (highlighted in red in FIG. 6F).
# [3] = tested on: mature hCO; experiment: single organoid quantitative proteomics of mature hCO; type: cell-based, human; details: mature hCO proteomics
# Method: Single hCO were washed 2× in PBS and snap frozen and stored at −80° C. Tissues were lysed in by tip-probe sonication in 1% SDS containing 100 mM Tris pH 8.0, 10 mM tris(2-carboxyethyl)phosphine, 40 mM 2-chloroacetamide and heated to 95° C. for 5 min. Proteins were purified using a modified Single-Pot Solid-Phase-enhanced Sample Preparation (SP3) strategy (Hughes et al., 2014). Briefly, Proteins were bound to Sera-Mag carboxylate coated paramagnetic beads in 50% acetonitrile containing 0.8% formic acid (v/v) (ThermoFisher Scientific). The beads were washed twice with 70% ethanol (v/v) and once with 100% acetonitrile. Proteins were digested on the beads in 100 mM Tris pH 7.5 containing 10% 2,2,2-Trifluoroethanol overnight at 37° C. with 200 ng of sequencing grade LysC (Wako Chemicals) and trypsin (Sigma). Beads were removed and peptides acidified to 1% trifluoroacetic acid prior to purification by styrene divinyl benzene-reversed phase sulfonated solid phase extraction microcolumns. Peptides were spiked with iRT peptides (Biognosys) and analysed on an Easy-nLC1200 coupled to a Q-Exactive HF in positive polarity mode. Peptides were separated using an in-house packed 75 μm×50 cm pulled column (1.9 μm particle size, C18AQ; Dr Maisch) with a gradient of 2-35% acetonitrile containing 0.1% FA over 120 min at 300 nL/min at 60° C. The instrument was operated in data-independent acquisition (DIA) mode essentially as described previously (Bruderer et al., 2017). Briefly, an MS1 scan was acquired from 350-1650 m/z (120,000 resolution, 3e6 AGC, 50 ms injection time) followed by 20 MS/MS variable sized isolation windows with HCD (30,000 resolution, 3e6 AGC, 27 NCE). A spectral library was created by fractionating a pooled mix of peptides from 10 separate hCO on an inhouse packed 320 μm×25 cm column (3 μm particle size, BEH; Waters) with a gradient of 2-40% acetonitrile containing 10 mM ammonium formate over 60 min at 6 μL/min using an Agilent 1260 HPLC. A total of 12 concatenated fractions were analysed using the identical LC-MS/MS conditions above except the instrument was operated in data-dependent acquisition (DDA) mode. Briefly, an MS1 scan was acquired from 350-1650 m/z (60,000 resolution, 3e6 AGC, 50 ms injection time) followed by 20 MS/MS with HCD (1.4 m/z isolation, 15,000 resolution, 1e5 AGC, 27 NCE). DDA data were processed with Andromeda in MaxQuant v1.5.8.3 (Cox and Mann, 2008) against the human UniProt database (January 2016) using all default settings with peptide spectral matches and protein false discovery rate (FDR) set to 1%. DIA data were processed with Spectronaut v11 (Bruderer et al., 2015) using all default settings with precursor and protein FDR set to 1% and quantification performed at MS2.
# Proteomic data were Log 2 transformed and median normalised. Removal of unwanted variation method (RUV) was applied to remove any batch effects (Gagnon-Bartsch et al., 2013). Differential abundance was determined with two sample t-tests with FDR-based multiple hypothesis testing correction. GO analysis was performed with DAVID v6.8 and gene ontology terms from BP_FAT (Huang da et al., 2009) and heat-maps and hierarchical clustering was performed using GENE-E (Broad Institute).
# In order to determine the biological processes driving the pro-proliferative effects of our hit compounds, we performed RNA-sequencing (RNA-seq) and single organoid quantitative proteomics (FIG. 4A). These analyses were performed on hCOs treated with compounds 3, 63 and 65 at concentrations of 3 μM, 0.3 μM and 1 μM, respectively. RNA-seq for hCO treated with compounds 3 and 65 clustered distinctly in principal component analysis (FIG. 4B) and regulated a total of 239 and 207 genes (FIG. 9A), respectively.
# [4] = tested on: adult rodent cardiomyocyte; details: Mohamed et al., 2018; cited from earlier work
# [5] = tested on: kinases; details: Fan et al., 2016; cited from earlier work
smiles,measurement,setting,value
"CC(O)(CCOP(=O)(O)O)CC(=O)O (racemic) [mevalonate, (±)-Mevalonic acid 5-phosphate lithium salt hydrate, reference compound]",proliferation in mature hCO,"[1]; 0.5 mM, 2 days",induces proliferation
same,rescue of proliferation under 10 μM simvastatin,[2],rescued proliferation
"Cc1c[nH]c(-c2cnc(NCCNc3ccc(C#N)cn3)nc2-c2ccc(Cl)cc2Cl)n1 [CHIR99021, reference compound]","proliferation in mature hCO, compound individually",[1]; 5 μM CHIR99021 or 1 μM compound 51 alone,failed to activate proliferation individually
same,"proliferation signature proteins (cell cycle network, mevalonate enzymes, nuclear transporters)",[3],only the “cell cycle network” proteins were induced
NC(=O)c1ccc(-c2nc(-c3ccc4c(c3)OCO4)c(-c3ccccn3)[nH]2)cc1 [SB431542],pro-proliferative activity alone,[4],not sufficient
"CN1C(=O)c2sccc2N(C)c2nc(Nc3ccc(S(N)(=O)=O)cc3)ncc21 [XMU-MP-1, reference compound]",off-target effects on cell cycle proteins,[5],PLK4 and AURKB
same,proliferation in mature hCO in combination with GSK3 inhibition (Ki-67 intensity),[1]; 5 μM CHIR99021 with 1 μM compound 51 or 1 μM XMU-MP-1,synergistic effect on proliferation
CC(C)=CCC/C(C)=C/CC/C(C)=C/COP(=O)(O)OP(=O)(O)O [farnesyl pyrophosphate],rescue of proliferation under 10 μM simvastatin,[2],incapable of rescuing proliferation
CC(C)=CCC/C(C)=C/CC/C(C)=C/CC/C(C)=C/COP(=O)(O)OP(=O)(O)O [geranylgeranyl pyrophosphate],rescue of proliferation under 10 μM simvastatin,[2],rescued proliferation
CC(C)=CCC/C(C)=C/CC/C(C)=C/CC/C=C(\C)CC/C=C(\C)CCC=C(C)C [squalene],rescue of proliferation under 10 μM simvastatin,[2],not
